Earlier results in patent US20150190413A1, “COMPOSITIONS AND METHODS FOR THE TREATMENT OF BLADDER CANCER” (Endo Pharmaceuticals Solutions Inc., priority 2007, published 2015).
Read-outs that look alike come from different tables or passages of the source.

Test system: epithelium of the bladder
Conditions: rabbit

C[S+](C)[O-] [DMSO, dimethyl sulfoxide]
Effect on epithelium of the bladder (five percent solutions of DMSO in water): sensitive | Effect on bladder cells (one hundred percent DMSO): fixed | Effect on epithelium of the bladder (twenty percent solutions of DMSO in water): loss of epithelial cells
